According to PubChem BioAssay (NCI):
Where “and” joins values, the source holds several entries; their conditions need not be identical. Identical values can stand only once.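 Each compound was tested at five concentrations against cells in 96-well plates for 48 hours. Abbreviation: GI50, concentration required for 50% inhibition of growth. TGI is the concentration that stops growth completely.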

System: MDA-MB-468 breast
Test: DTP human tumour cell line panel, 48 h

Compound | GI50 | TGI
CNC(=O)c1cc(Oc2ccc3c(c2)sc2nc(-c4ccc(N)cc4)cn23)ccn1 | 0.304 µM | > 100 µM
C#C[C@]1(O)CC[C@H]2[C@@H]3CC=C4c5sc(-c6cccc(O)c6)nc5CC[C@]4(C)[C@H]3CC[C@@]21C | 2.56 µM | 6.66 µM
COc1cccc(-c2nn(-c3ccccc3)cc2-c2ccnc(NCCCNS(=O)(=O)c3cccc(F)c3)c2)c1 | 3.49 µM | 30.4 µM
N#Cc1nc(-c2ccc(F)cc2)oc1S(=O)(=O)N1CCOCC1 | 1.6 µM | 3.27 µM
CS(=O)c1nccc(-c2c(-c3ccc(F)c(OCCc4ccc(F)cc4)c3)nc3sccn23)n1 (centres undefined) | 1.73 µM | 3.76 µM
CCOC(=O)c1cc(-c2ccc([N+](=O)[O-])cc2)n(-c2ccc(C(=O)O)c(O)c2)c1C | 2.8 µM | 10.7 µM
NS(=O)(=O)c1ccc(-n2nc(-c3ccc(Br)cc3)ccc2=O)cc1 | > 10 µM | > 10 µM
COc1ccc(CN2CCCC(C(=O)c3ccc(C(F)(F)F)cc3)C2)c(O)c1 (centres undefined) | 15.7 µM | 41.6 µM
Cc1c(Cl)cccc1Nc1ncccc1C(=O)O | 84.4 µM | > 100 µM
Fc1ccc(-c2nn(-c3ccccc3)cc2-c2nc3ccccc3o2)cc1 | 0.249 µM | 0.877 µM
CC1=C(CCCOC(=O)NCCCl)C2=C(C)C3(CC3)[C@@](C)(O)C(=O)C2=C1 | 1.83 µM | 5.08 µM
COc1ccc(CNC(=O)COc2ccc(/C=N/Nc3nc4ccccc4s3)cc2)cc1 | 1.9 µM | 6.09 µM
O=C(O)CCCc1ccc(N(CCCl)CCCl)cc1 | 23.1 µM | 99.2 µM
N#Cc1c(O)c2c(c(O)c1C#N)C(=O)c1ccccc1C2=O | 1.63 µM | 6.17 µM
OC(c1cccc(C(F)(F)F)c1)c1cnccc1NC1CCCCCC1 (centres undefined) | 1.22 µM | 2.76 µM
CN=C1NC(=O)/C(=C/c2ccc3ncccc3c2)S1 | 3.26 µM | 21.6 µM
CCN1CCN(c2nc(NCCNc3ccnc4cc(Cl)ccc34)c3ccccc3n2)CC1 | 0.752 µM | 2.34 µM
O=C(Cc1ccc(/C=C/C(=O)c2ncc[nH]2)cc1)Nc1ccc(Cl)cc1 | 1.68 µM | 6.2 µM
COc1ccccc1NC(=O)c1ccc(/C=C/C(=O)c2nccn2C)cc1 | 0.383 µM | 0.848 µM
O=[n+]1c(CBr)c(CBr)n([O-])c2ccccc21 | 7.38 µM | 20.4 µM
O=C(NNc1nc2cc(F)c(F)cc2n2cccc12)c1cccnn1 | 0.408 µM and 0.204 µM | 1.5 µM and 0.712 µM
O=C1c2ccccc2C(=O)c2c1ccc1[nH]c(CCl)nc21 | 1.94 µM | 4.29 µM
